Earlier results as cited in patent US20090022789A1 (Supernus Pharmaceuticals, Inc., priority 2007, published 2009).

Conditions: oral administration, IR form

## Nc1nnc(-c2cccc(Cl)c2Cl)c(N)n1 [lamotrigine, 3,5-diamino-6-(2,3-dichlorophenyl)-as-triazine]
  first-pass metabolism: negligible
